Measurements reported in patent US12702693B2, “Treatment of cystic fibrosis by delivery of codon-optimized mRNA encoding CFTR” (Translate Bio, Inc., priority 2017, dated 2026).

Tests used:
[1] = available data; cited from earlier work
[2] = test system: human bronchial epithelial cells; assay: Ussing chamber assay of Forskolin-induced chloride channel activity; assay type: cell-based; conditions: all groups
Experimental: The changes in chloride transport across the bronchial epithelial cell membrane was measured by short circuit current output in an Ussing epithelial voltage clamp apparatus (i.e., a Ussing chamber). Specifically, using an established Ussing Chamber procedure (Charles River Laboratories), hCFTR mRNA encapsulated in a liposome comprising ICE, DOPE, and a PEG-modified lipid was incubated for 2 or 4 hours on the apical (mucosal) or basolateral (serosal) sides, or both sides, of human bronchial epithelial cells. A buffer blank also was included as a control, for example, to assess chloride transport by endogenous CFTR in the cells. Next, Forskolin-induced chloride channel activity was measured using the Ussing chamber assay.

Row | SMILES | mutagenicity/genotoxicity data [1] | chloride activity after addition of CFTR inhibitor [2]
1 | CCC(=O)O [propionic acid] | negative | –
2 | O=C(O)c1ccc(/C=C2\SC(=S)N(c3cccc(C(F)(F)F)c3)C2=O)cc1 [CFTR inhibitor-172] | – | inhibited
3 | CC(C)CCC[C@@H](C)[C@H]1CC[C@H]2[C@@H]3CC=C4C[C@@H](O)CC[C@]4(C)[C@H]3CC[C@]12C [cholesterol] | negative | –
4 | c1c[nH]cn1 [imidazole] | negative | –
